Measured values reported in article PMC7181660, “A novel specific PERK activator reduces toxicity and extends survival in Huntington's disease models” (Scientific Reports, 2020).
Where two headings read alike, the source gives them in different places.

Columns and labels:
EIF2AK1 (HRI) = EIF2AK1 (HRI) (Homo sapiens, UniProt Q9BQI3); experiment: In vitro HotSpot kinase assay on HRI; format: biochemical
Method: (§1) In vitro kinase assays with purified components and full kinase panel analysis was done at Reaction Biology Corp. (Malvern, PA, USA) using the HotSpot Kinase Assay. Reactions were performed for 20 min at room temp. using ^33P-ATP (Specific activity 10 μCi/μl) with 1 μM total ATP, 20 μM substrate and kinases in the nanomolar range in 20 mM Hepes (pH 7.5), 10 mM MgCl2, 1 mM EGTA, 0.02% Brij35, 0.02 mg/ml BSA, 0.1 mM Na3VO4, 2 mM DTT, 1% DMSO and other required factors depending on the assayed kinase.

R6/2 HD mouse model [1] = experiment: Combined phenotype score (hind limb clasping, ledge, gait, kyphosis); format: in vivo, mice; details: R6/2 TG, 1 mg/kg subcutaneous 28 days
Method: […]. Measures include hind limb clasping, ledge test, gait and kyphosis. See detailed information in Supplementary methods.
Group # Animals # Treatment Volume bleeding and
Determination of MK-28 levels in the plasma and brain were performed by LC/MS/MS using
generic methods in the bioanalytical lab of WuXi AppTec Co., Ltd. (Shanghai, China). The
MK-28 concentrations were determined in the plasma and whole perfused brain tissues of the
animals following a single IP injection of 10 mg/kg.
Combined phenotype: A method assessing a combination of different disease -phenotypes
was used to evaluate disease progression. Phenotypic evaluation includes hind-limb
clasping, ledge test, gait and kyphosis. Limb clasping: hind-limb clasping behavior was
evaluated and different scores were given based on their performance on a scale from 0 to 3: 0
= normal; 1 = clasps hind-limb s within 30s of being suspended in the air; 2 = cla sps hind-limb s
within 5s, recovering when released after 30s; 3 = clasps hind-limbs within 5s and has difficulty
recovering when released after 30s. Ledge test: The ledge test evaluates motor coordination by
placing mice on the ledge of the cage. Typically, mice will walk along the ledge and attempt
to descend back into the cage. Walking without losing balance is considered normal and
assigned a score of 0. A score of 1 is given if the mouse misse s its footing while walking. If […]

PERK (EIF2AK3) = target: T1, PERK (EIF2AK3) (Homo sapiens, UniProt Q9NZJ5); experiment: In vitro HotSpot kinase assay on isolated PERK; format: biochemical; details: isolated PERK, 1 μM ATP; read-out: EC50 of PERK activation
T1 construct: GST; purchased Life technologies, Carlsbad, CA; host or cells: insect cells
T1 sequence (Q9NZJ5 536-1116): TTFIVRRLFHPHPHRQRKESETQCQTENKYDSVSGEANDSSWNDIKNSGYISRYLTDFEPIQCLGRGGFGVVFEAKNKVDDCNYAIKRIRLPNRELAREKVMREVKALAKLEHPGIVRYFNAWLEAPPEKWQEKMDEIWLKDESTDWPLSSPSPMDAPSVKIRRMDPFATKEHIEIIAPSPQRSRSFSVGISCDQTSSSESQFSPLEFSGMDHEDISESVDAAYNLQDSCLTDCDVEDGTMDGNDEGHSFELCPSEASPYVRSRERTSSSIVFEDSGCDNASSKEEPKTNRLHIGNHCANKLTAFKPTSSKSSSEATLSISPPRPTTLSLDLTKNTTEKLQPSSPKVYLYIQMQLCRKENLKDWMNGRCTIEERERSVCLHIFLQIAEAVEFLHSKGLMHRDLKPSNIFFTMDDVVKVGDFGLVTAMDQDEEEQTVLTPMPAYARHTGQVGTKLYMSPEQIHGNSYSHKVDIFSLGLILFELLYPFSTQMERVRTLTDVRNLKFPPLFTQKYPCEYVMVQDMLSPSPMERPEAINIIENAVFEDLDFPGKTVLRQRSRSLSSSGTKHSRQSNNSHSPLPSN
Method: as §1

[2] = Pharmacokinetics and BBB penetration after single IP injection; format: in vivo; details: mice, single IP 10 mg/kg
R6/2 HD mouse model [3] = experiment: Blood glucose levels; format: in vivo, mice; details: TG + MK-28
Method: For blood glucose measurements, blood samples from all the evaluated groups (n = 34) were obtained from the tail and measured with the Accu-Check glucose monitor (Roche Diagnostics, USA). Two independent glucose measurements were performed at the same hour 3 and 12 weeks after birth corresponding to the asymptomatic and symptomatic stages respectively. Glucose levels are expressed in mg/dl.

eIF2α-P = experiment: Brain striatum immunofluorescence of eIF2α-P / total eIF2α; format: in vivo, mice; details: week 4 after pump implantation
Method: Under anesthesia, animals were perfused with 4% PFA (formaldehyde in phosphate-buffered saline (PBS)) and the brains were removed and soaked in 4% PFA overnight. Then, brains were incubated overnight in 30% sucrose solution and frozen in OCT compound Tissue-Tek by using dry ice. Sections (10 µm) of the striatum were obtained by cryostat. Brain sections were processed for immunochemistry with the kind help of Daniel Frenkel. They were washed with PBS for 10 minutes, incubated in 0.5% triton-X-100 for 10 minutes and then in blocking solution containing 1% bovine serum albumin (BSA), 10% normal goat serum and 0.25% triton for one hour at room temperature. The samples were rinsed with PBS and incubated overnight at 4 °C with the selected primary antibody diluted in blocking solution (eIF2α-mouse [1:400] and phosphorylated eIF2α-rabbit [1:400]). […] After washing with PBS, samples were placed in DAPI (4′,6-diamidino-2-phenylindole) diluted in PBS for 10 minutes, mounted and examined by confocal microscope Zeiss LSM-510, 3 slides were analysed from each subject.
Signal quantification and cell counting were done using the ImageJ program. The value obtained for the phosphorylated eIF2α signal was divided by the total eIF2α signal in the same image. […] Statistical significance was determined at P < 0.05.

Sequence of EIF2AK1 (HRI) (Q9BQI3 whole entry): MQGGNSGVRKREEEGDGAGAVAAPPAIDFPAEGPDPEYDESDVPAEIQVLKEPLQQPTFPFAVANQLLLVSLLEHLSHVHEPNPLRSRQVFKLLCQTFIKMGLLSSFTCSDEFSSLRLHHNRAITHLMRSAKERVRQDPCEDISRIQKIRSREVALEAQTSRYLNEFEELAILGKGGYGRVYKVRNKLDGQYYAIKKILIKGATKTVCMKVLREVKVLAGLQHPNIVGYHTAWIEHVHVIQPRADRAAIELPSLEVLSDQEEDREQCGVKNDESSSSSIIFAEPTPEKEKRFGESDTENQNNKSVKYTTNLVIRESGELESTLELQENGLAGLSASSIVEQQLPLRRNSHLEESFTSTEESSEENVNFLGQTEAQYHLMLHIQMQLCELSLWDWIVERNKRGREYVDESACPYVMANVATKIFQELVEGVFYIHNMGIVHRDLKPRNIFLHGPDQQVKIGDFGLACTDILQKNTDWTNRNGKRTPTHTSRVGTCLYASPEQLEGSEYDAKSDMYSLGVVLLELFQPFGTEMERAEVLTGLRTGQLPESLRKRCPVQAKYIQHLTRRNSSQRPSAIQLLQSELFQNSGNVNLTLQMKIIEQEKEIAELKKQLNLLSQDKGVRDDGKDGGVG

**Q.** Which “effect on EIF2AK1 (HRI) activity” value (EIF2AK1 (HRI)) does the source give for `CN(/N=C\c1ccc(O)c(O)c1)c1nc(-c2ccccc2)cc(-c2ccccc2)n1` [MK-28] here?
**A.** The value was “little or no effect”.

**Q.** And the composite phenotype score (R6/2 HD mouse model [1]; week 6)?
**A.** The composite phenotype score was 3.14 ± 1.41.

**Q.** And the composite phenotype score (R6/2 HD mouse model [1]; week 8)?
**A.** Its composite phenotype score is 4.4 ± 0.55.

**Q.** And the EC50 (PERK (EIF2AK3))?
**A.** The EC50 was 490 nM.

**Q.** And the “time of Cmax in plasma after injection” value [2]?
**A.** The value was 40 min.

**Q.** What about the “time of Cmax in the brain after injection” value [2] of the same compound?
**A.** Its value is 40 min.

**Q.** What about the Kp ([2]; mouse, brain, read-out: AUC in the brain as % of that in the plasma) of the same compound?
**A.** The Kp was 0.22.

**Q.** And the Cmax ([2]; mouse, brain, read-out: Cmax in the brain)?
**A.** Its Cmax is 57 ng/g.

**Q.** And the half-life ([2]; mouse, brain, read-out: half-life in the brain)?
**A.** The half-life was 80 min.

**Q.** And the Cmax ([2]; mouse, plasma, read-out: Cmax in plasma)?
**A.** The Cmax was 105 ng/mL.

**Q.** And the half-life ([2]; mouse, plasma, read-out: half-life in plasma)?
**A.** The half-life was 30 min.

**Q.** What about the “glucose increase ratio between disease stages (symptomatic vs asymptomatic)” value (R6/2 HD mouse model [3]) of the same compound?
**A.** The value was 109.60 ± 5.04%.

**Q.** What about the “increase of eIF2α-P levels in striatum” value (eIF2α-P; TG mice) of the same compound?
**A.** The value was ~ 6 fold.

**Q.** What about the “increase of eIF2α-P levels in striatum” value (eIF2α-P; WT mice) of the same compound?
**A.** Its value is ~ 7 fold.
